The results in this text go back to patent publication US20240217978A1 (CHONG KUN DANG PHARMACEUTICAL CORP., priority 2021, published 2024).

One may read the IC50 as the concentration at which inhibition is half-maximal.

The target in this experiment is human adenosine A2a receptor (Homo sapiens (Human), UniProt P29274). Description: A2a receptor binding affinity, [3H]-NECA radioligand binding test. Conditions: [3H]-NECA 37 nM; membrane from HEK-293 cells transfected with human adenosine A2a receptor. An outline of the steps: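 IC50 values (μM) come from displacement of [3H]-NECA, used at 37 nM final, on human A2a receptor membranes from transfected HEK-293 cells. Incubation lasted one hour at room temperature in Tris/MgCl2/EDTA buffer, pH 7.4; filter-bound radioactivity was counted by scintillation.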
Sequence of human adenosine A2a receptor (P29274 whole entry): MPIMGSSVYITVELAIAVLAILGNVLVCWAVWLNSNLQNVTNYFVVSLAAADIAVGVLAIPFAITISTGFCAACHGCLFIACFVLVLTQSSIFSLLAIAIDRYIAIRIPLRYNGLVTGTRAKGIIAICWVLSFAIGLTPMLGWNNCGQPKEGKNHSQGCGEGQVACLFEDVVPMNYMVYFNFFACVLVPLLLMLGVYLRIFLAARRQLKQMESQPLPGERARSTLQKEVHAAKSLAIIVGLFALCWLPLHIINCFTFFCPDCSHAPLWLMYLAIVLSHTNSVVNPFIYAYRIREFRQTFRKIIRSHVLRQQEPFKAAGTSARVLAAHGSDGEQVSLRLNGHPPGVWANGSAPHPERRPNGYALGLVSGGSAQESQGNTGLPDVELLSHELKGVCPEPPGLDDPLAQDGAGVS
Turning to `CCC(C)[C@H](Nc1nc(N)n2nc(-c3ccco3)nc2n1)C(=O)N1CCN(CC(F)(F)F)CC1` (stereo partly drawn) [Example 214, (2S)-2-((7-amino-2-(furan-2-yl)-[1,2,4]triazolo[1,5-a][1,3,5]triazin-5-yl)amino)-3-methyl-1-(4-(2,2,2-trifluoroethyl)piperazin-1-yl)pentan-1-one], the IC50 stood at 5 nM.
In the case of `CC(C)C[C@H](Nc1nc(N)n2nc(-c3ccco3)nc2n1)C(=O)N1CCN(CC(F)(F)F)CC1` [Example 215, (S)-2-((7-amino-2-(furan-2-yl)-[1,2,4]triazolo[1,5-a][1,3,5]triazin-5-yl)amino)-4-methyl-1-(4-(2,2,2-trifluoroethyl)piperazin-1-yl)pentan-1-one] it was 8 nM; in that of `Nc1nc(N[C@H](C(=O)N2CCN(CC(F)(F)F)CC2)C2CC2)nc2nc(-c3ccco3)nn12` [Example 216, (S)-2-((7-amino-2-(furan-2-yl)-[1,2,4]triazolo[1,5-a][1,3,5]triazin-5-yl)amino)-2-cyclopropyl-1-(4-(2,2,2-trifluoroethyl)piperazin-1-yl)ethan-1-one], 18 nM.
The result for `Nc1nc(N[C@H](C(=O)N2CCN(CC(F)(F)F)CC2)C2CCCC2)nc2nc(-c3ccco3)nn12` [Example 217, (S)-2-((7-amino-2-(furan-2-yl)-[1,2,4]triazolo[1,5-a][1,3,5]triazin-5-yl)amino)-2-cyclopentyl-1-(4-(2,2,2-trifluoroethyl)piperazin-1-yl)ethan-1-one] reads 3 nM; that for `Cc1ccc(-c2nc3nc(N4CC[C@H]4C(=O)N4CCN(Cc5ccccc5)CC4)nc(N)n3n2)o1` [Example 218, (S)-(1-(7-amino-2-(5-methylfuran-2-yl)-[1,2,4]triazolo[1,5-a][1,3,5]triazin-5-yl)azetidin-2-yl)(4-benzylpiperazin-1-yl)methanone], 10 nM.
In the case of `Cc1ccc(-c2nc3nc(N4CC[C@H]4C(=O)N4CCN(C5CCCCC5)CC4)nc(N)n3n2)o1` [Example 219, (S)-(1-(7-amino-2-(5-methylfuran-2-yl)-[1,2,4]triazolo[1,5-a][1,3,5]triazin-5-yl)azetidin-2-yl)(4-cyclohexylpiperazin-1-yl)methanone] it was 3 nM; in that of `Cc1ccc(-c2nc3nc(N4CC[C@H]4C(=O)N4CCN(CC(F)(F)F)CC4)nc(N)n3n2)o1` [Example 220, (S)-(1-(7-amino-2-(5-methylfuran-2-yl)-[1,2,4]triazolo[1,5-a][1,3,5]triazin-5-yl)azetidin-2-yl)(4-(2,2,2-trifluoroethyl)piperazin-1-yl)methanone], 15 nM; in that of `COCCN1CCN(C(=O)[C@@H]2CCN2c2nc(N)n3nc(-c4ccc(C)o4)nc3n2)CC1` [Example 221, (S)-(1-(7-amino-2-(5-methylfuran-2-yl)-[1,2,4]triazolo[1,5-a][1,3,5]triazin-5-yl)azetidin-2-yl)(4-(2-methoxyethyl)piperazin-1-yl) methanone], 10 nM.
The compound `CCCCN1CCN(C(=O)[C@@H]2CCN2c2nc(N)n3nc(-c4ccc(C)o4)nc3n2)CC1` [Example 222, (S)-(1-(7-amino-2-(5-methylfuran-2-yl)-[1,2,4]triazolo[1,5-a][1,3,5]triazin-5-yl)azetidin-2-yl)(4-butylpiperazin-1-yl)methanone] returned an IC50 of 8 nM.
The result for `Nc1nc(N2CCC[C@H]2C(=O)N2CCN(CC(F)F)CC2)nc2nc(-c3ccco3)nn12` [Example 223, (S)-(1-(7-amino-2-(furan-2-yl)-[1,2,4]triazolo[1,5-a][1,3,5]triazin-5-yl)pyrrolidin-2-yl)(4-(2,2-difluoroethyl)piperazin-1-yl)methanone] reads 7 nM; that for `CC(F)(F)CN1CCN(C(=O)[C@@H]2CCCN2c2nc(N)n3nc(-c4ccco4)nc3n2)CC1` [Example 224, (S)-(1-(7-amino-2-(furan-2-yl)-[1,2,4]triazolo[1,5-a][1,3,5]triazin-5-yl)pyrrolidin-2-yl)(4-(2,2-difluoropropyl)piperazin-1-yl)methanone], 6 nM; that for `CCC(F)(F)CN1CCN(C(=O)[C@@H]2CCCN2c2nc(N)n3nc(-c4ccco4)nc3n2)CC1` [Example 225, (S)-(1-(7-amino-2-(furan-2-yl)-[1,2,4]triazolo[1,5-a][1,3,5]triazin-5-yl)pyrrolidin-2-yl)(4-(2,2-difluorobutyl)piperazin-1-yl)methanone], 2 nM.
In the case of `Nc1nc(N2CCC[C@H]2C(=O)N2CCN(CC(F)(F)C(F)F)CC2)nc2nc(-c3ccco3)nn12` [Example 226, (S)-(1-(7-amino-2-(furan-2-yl)-[1,2,4]triazolo[1,5-a][1,3,5]triazin-5-yl)pyrrolidin-2-yl)(4-(2,2,3,3-tetrafluoropropyl)piperazin-1-yl)methanone] it was 7 nM; in that of `Nc1nc(N2CCC[C@H]2C(=O)N2CCN(CC(F)(F)C(F)(F)F)CC2)nc2nc(-c3ccco3)nn12` [Example 227, (S)-(1-(7-amino-2-(furan-2-yl)-[1,2,4]triazolo[1,5-a][1,3,5]triazin-5-yl)pyrrolidin-2-yl)(4-(2,2,3,3,3-pentafluoropropyl)piperazin-1-yl)methanone], 9 nM; in that of `Nc1nc(N2CCC[C@H]2C(=O)N2CCN(CC(F)(F)C(F)(F)C(F)(F)F)CC2)nc2nc(-c3ccco3)nn12` [Example 228, (S)-(1-(7-amino-2-(furan-2-yl)-[1,2,4]triazolo[1,5-a][1,3,5]triazin-5-yl)pyrrolidin-2-yl)(4-(2,2,3,3,4,4,4-heptafluorobutyl)piperazin-1-yl)methanone], 2 nM.
The result for `CC(C)(O)CC(=O)N1CCN(C(=O)[C@@H]2CCCN2c2nc(N)n3nc(-c4ccco4)nc3n2)CC1` [Example 229, 1-(4-((7-amino-2-(furan-2-yl)-[1,2,4]triazolo[1,5-a][1,3,5]triazin-5-yl)-L-prolyl)piperazin-1-yl)-3-hydroxy-3-methylbutan-1-one] reads 12 nM.
With `Nc1nc(N2CCC[C@H]2C(=O)N2CCN(C(=O)C3CCC(O)CC3)CC2)nc2nc(-c3ccco3)nn12` (stereo partly shown) [Example 230], the IC50 stood at 6 nM.
In the case of `Nc1nc(N[C@@H](CO)C(=O)N2CCN(CC(F)(F)F)CC2)nc2nc(-c3ccco3)nn12` [Example 231, (S)-2-((7-amino-2-(furan-2-yl)-[1,2,4]triazolo[1,5-a][1,3,5]triazin-5-yl)amino)-3-hydroxy-1-(4-(2,2,2-trifluoroethyl)piperazin-1-yl)propan-1-one] it was 5 nM.
In the case of `CC(C)(F)CN1CCN(C(=O)[C@H](CO)Nc2nc(N)n3nc(-c4ccco4)nc3n2)CC1` [Example 232, (S)-2-((7-amino-2-(furan-2-yl)-[1,2,4]triazolo[1,5-a][1,3,5]triazin-5-yl)amino)-1-(4-(2-fluoro-2-methylpropyl)piperazin-1-yl)-3-hydroxypropan-1-one] it was 40 nM; in that of `Nc1nc(N[C@@H](CO)C(=O)N2CCN(Cc3ccccc3)CC2)nc2nc(-c3ccco3)nn12` [Example 233, (S)-2-((7-amino-2-(furan-2-yl)-[1,2,4]triazolo[1,5-a][1,3,5]triazin-5-yl)amino)-1-(4-benzylpiperazin-1-yl)-3-hydroxypropan-1-one], 14 nM.
Compound `Nc1nc(N[C@@H](CO)C(=O)N2CCN(c3ccccc3)C(=O)C2)nc2nc(-c3ccco3)nn12` [Example 234] gave an IC50 of 12 nM.
The result for `Nc1nc(N[C@@H](CO)C(=O)N2CCN(c3ncccn3)CC2)nc2nc(-c3ccco3)nn12` [Example 235, (S)-2-((7-amino-2-(furan-2-yl)-[1,2,4]triazolo[1,5-a][1,3,5]triazin-5-yl)amino)-3-hydroxy-1-(4-(pyrimidin-2-yl)piperazin-1-yl)propan-1-one] reads 10 nM; that for `Nc1nc(N2CCC[C@H]2C(=O)N2CCN(c3ccc(F)cc3)C(=O)C2)nc2nc(-c3ccco3)nn12` [Example 236, 4-((7-amino-2-(furan-2-yl)-[1,2,4]triazolo[1,5-a][1,3,5]triazin-5-yl)-L-prolyl)-1-(4-fluorophenyl)piperazin-2-one], 2 nM.
In the case of `Nc1nc(N2CCC[C@H]2C(=O)N2CCN(C(=O)CO)CC2)nc2nc(-c3ccco3)nn12` [Example 237, 1-(4-((7-amino-2-(furan-2-yl)-[1,2,4]triazolo[1,5-a][1,3,5]triazin-5-yl)-L-prolyl)piperazin-1-yl)-2-hydroxyethan-1-one] it was 8 nM.
In the case of `Nc1nc(N2CCC[C@H]2C(=O)N2CCN(CC(F)(F)F)CC2)nc2sc(-c3ccco3)nc12` [Example 238, (S)-(1-(7-amino-2-(furan-2-yl)thiazolo[5,4-d]pyrimidin-5-yl)pyrrolidin-2-yl)(4-(2,2,2-trifluoroethyl)piperazin-1-yl)methanone] it was 3 nM; in that of `Nc1nc(N2CCC[C@H]2C(=O)N2CCN(CCCC(F)(F)F)CC2)nc2nc(-c3ccco3)nn12` [Example 239, (S)-(1-(7-amino-2-(furan-2-yl)-[1,2,4]triazolo[1,5-a][1,3,5]triazin-5-yl)pyrrolidin-2-yl)(4-(4,4,4-trifluorobutyl)piperazin-1-yl) methanone], 6 nM.
Turning to `C[C@H](Nc1nc(N)n2nc(-c3ccco3)nc2n1)C(=O)N1CCN(c2ncccn2)CC1` [Example 240, (S)-2-((7-amino-2-(furan-2-yl)-[1,2,4]triazolo[1,5-a][1,3,5]triazin-5-yl)amino)-1-(4-(pyrimidin-2-yl)piperazin-1-yl)propan-1-one], the IC50 was 0.3 nM.
As for `Nc1nc(N[C@H](C(=O)N2CCN(c3ncccn3)CC2)C2CCOCC2)nc2nc(-c3ccco3)nn12` [Example 241, (S)-2-((7-amino-2-(furan-2-yl)-[1,2,4]triazolo[1,5-a][1,3,5]triazin-5-yl)amino)-1-(4-(pyrimidin-2-yl)piperazin-1-yl)-2-(tetrahydro-2H-pyran-4-yl)ethan-1-one], the IC50 was determined as 1 nM.
